# Results from patent publication US11913884B2, “Visible light-activated dyes and methods of use thereof” (William Marsh Rice University, priority 2019, dated 2024).
# Values joined by “and” are separate entries in the source; they are usually repeats but may differ in a detail not shown here. Identical values can stand only once. Counter-ions that a name gives are not always drawn. Like-named read-outs stand apart in the source and are kept apart here.
# Columns and labels:
# [1] = UV-vis absorption and fluorescence spectra of thio-caged and uncaged fluorophores; type: physicochemical; conditions: for λem / λabs: DMSO (50 μM); for λabs: absorption maxima
# Experimental: Encouraged by the excellent photoactivation properties of SNile Red, Lawesson's reagent was employed to introduce thiocarbonyl moieties into several different fluorophores, such as phthalimide (PI), coumarin (Cou) and acridone (ACD), obtaining yields ranging from 20-80% (FIG. 1). Next, characterization of the spectroscopic and photochemical properties of these thiocaged fluorophores and their oxidized products using UV-vis and fluorescence spectroscopies was performed (Table 1). […] Double thiocarbonyl substitution on 4-dimethylaminophthalimide (4-DMAP, FIG. 1) produced an even larger bathochromic shift of 166 nm. […] It was hypothesized that the red-shift and enhanced absorption seen with thiocarbonyl compounds were due to the reduced energy gap between the HOMO-LUMO in these fluorophores. This is consistent with the computational results discussed below. […] To assess the efficiency of photoactivation for the various thio-caged fluorophores, UV-vis and fluorescence spectra were recorded after different irradiation times (FIGS. 4-8).
# (§1) The ^1H NMR spectroscopic measurements were carried out using a Bruker-600 NMR at 600 MHz with tetramethysilane (TMS) as internal reference. Electrospray ionization (ESI) mass spectra were performed on a Bruker MicroToF ESI LC-MS System in positive-ion mode. The steady-state absorption spectra were obtained with a ThermoFisher Evolution 220 UV-Vis spectrophotometer in 1 cm path length quartz cells. Fluorescence spectra were recorded using spectrophotometer (SPEX FluoroLog-3). Quantum yield in DMSO was measured relative to the fluorescence of Rhodamine B (Φ=0.65) in ethanol or quinine sulfate (Φ=0.55) in 0.5 M·L^−1 H2SO4. FT-IR spectrum was taken on a PerkinElmer Spectrum 100 FT-IR Spectrometers. Confocal fluorescent images of living cells were performed using Nikon A1R-si Laser Scanning Confocal Microscope (Japan), equipped with lasers of 405/488/561/638 nm. STORM images were performed on a NSTORM (Nikon, Japan), featuring a CFI Apo TIRF 100× oil objective (NA 1.49) on an inverted Nikon Ti Eclipse microscope with a quad cube filter (Chroma, zt405/488/561/640 m-TRF), piezo stage, and Perfect Focus System (Nikon) for Z-stability. Light source are hand-held UV lamp, BlueView Transilluminator (470 nm centred, Vernier), Prior Lumen200 with 615/30 filter and 850 LED (Mouser Electronics).
# [2] = Fluorescence quantum yield determination; type: physicochemical; conditions: DMSO; reference rhodamine B in ethanol or quinine sulfate in 0.5 M H2SO4
# Experimental: as §1
# Quantum yields were measured with Rhodamine B as reference (Φ=0.65) or quinine sulfate (Φ=0.55) in 0.5 M H2SO4. Fluorescence measurements were performed in 1 cm quartz cells with 5 μM samples in DMSO on spectrophotometer (SPEX FluoroLog-3) (slits 5×5). The fluorescence quantum yield, Φ (sample), were calculated according to equation as following:
# [formula] Φ: quantum yield; I: integrated emission intensity; OD: optical density at the excitation wavelength; d: refractive index of solvents, dDMSO=1.478; dethanol=1.36; dwater=1.33.
# [3] = Photoactivation (turn-on) of thio-caged fluorophores in solution by light irradiation; type: physicochemical; conditions: DMSO; footnote d: 615 nm, 0.4 μW cm^−2
# Description: To determine whether a minimal one atom sulfur-for-oxygen substitution within fluorophores can lead to fluorescence quenching, thio-caged Nile Red (SNile Red, FIG. 1) was synthesized, in which a carbonyl group was replaced with a thiocarbonyl moiety. Treatment of Nile Red with Lawesson's reagent in refluxing benzene produced the desired SNile Red in a yield of 40%. […] Irradiation of SNile Red with red light (615 nm, 0.4 μW cm-2) led to the regeneration of fluorescent Nile Red in a high yield (FIG. 2A). The absorption maxima of SNile Red at 298, 368 and 652 nm were blue-shifted after desulfuration to 315 and 556 nm, in a good agreement with the absorption spectrum of authentic synthesized Nile Red (FIG. 2B). The A556/A652 value, representing the ratio of the absorbance maxima of Nile Red and SNile Red, increased from 0.25 to 30 after desulfuration reaction (FIG. 2B). Upon irradiation with red light, the fluorescence intensity of the desulfurated material at 626 nm increased 280-fold, accompanied by a change in fluorescence from dark to red (FIG. 2C). To evaluate the proper light source for SNile Red photoactivation, SNile Red was irradiated with either 470 nm, 615 nm, or 850 nm light for different times and fluorescence intensities at 626 nm were recorded. […] To further characterize the photoactivated product of SNile Red, ^1H NMR and ESI-MS spectral changes were measured in the process of photoactivation (FIG. 2A). […] Signals corresponding to phenyl moiety protons at 8.64, 8.62, 7.85, 7.73, 7.36, 7.04, and 6.79 ppm gradually disappeared, and were replaced by new signals appearing at 8.57, 8.13, 7.81, 7.72, 7.63, 6.85, 6.69 and 6.30 ppm, respectively. […] The photoactivated product was also characterized by ESI-mass spectrometric analysis FIG. 3). The observed m/z 319.2 corresponding to Nile Red confirms the photoactivation product of SNile Red is its oxo form. Both dialkylthioketones and diarylthioketones are known to undergo photo-oxidation reaction under oxygen and light to give the corresponding ketones (Coyle, 1985, Corsaro and Pistara, 1998). To investigate the effects of dissolved oxygen and light on the photoactivation of thio-caged fluorophores, the time profile of the fluorescence of SNile Red was measured in the presence or absence of light, or oxygen. […] To study the effect of oxygen during the photoactivation, the inventors prepared an oxygen-free SNile Red solution by bubbling nitrogen gas and irradiated at 615 nm. […] Inspired by the photoactivation mechanism of thioketones, it was hypothesized that singlet oxygen generated by self-sensitization can be the active species to oxidize thiocarbonyl groups within fluorophores (Coyle, 1985 and Corsaro and Pistara, 1998). […] The singlet oxygen quantum yield (DA) was further determined to be 0.36 with considering the absorption correction factor over the 600-630 nm region (Bonacin et al., 2009 and Adarsh et al., 2010) by referring to methylene blue (MB) (ΦΔ,MB=0.57 in dichloromethane; Li et al., 2013).
# Encouraged by the excellent photoactivation properties of SNile Red, Lawesson's reagent was employed to introduce thiocarbonyl moieties into several different fluorophores, such as phthalimide (PI), coumarin (Cou) and acridone (ACD), obtaining yields ranging from 20-80% (FIG. 1). Next, characterization of the spectroscopic and photochemical properties of these thiocaged fluorophores and their oxidized products using UV-vis and fluorescence spectroscopies was performed (Table 1). […] Double thiocarbonyl substitution on 4-dimethylaminophthalimide (4-DMAP, FIG. 1) produced an even larger bathochromic shift of 166 nm. […] It was hypothesized that the red-shift and enhanced absorption seen with thiocarbonyl compounds were due to the reduced energy gap between the HOMO-LUMO in these fluorophores. This is consistent with the computational results discussed below. […]
# [4] = cited from earlier work
# [5] = in dichloromethane; cited from earlier work
# [6] = system: H2B-Halo expressed CHO-K1 cells; test: Turn-on of 5NP-Halo in cells; type: cell-based; conditions: 10 μM for 1 h
# Description: FIGS. 19A & 19B show turn-on of 5NP-Halo in H2B-Halo expressed CHO-K1 cells.
SMILES,λem [1],ø (fluorescence quantum yield) [2],λabs [1],further results
C=C[C@H]1C[N@@]2CC[C@H]1C[C@H]2[C@H](O)c1ccnc2ccc(OC)cc12 [quinine sulfate],–,–,–,fluorescence quantum yield Φ of reference ([4]; in 0.5 M H2SO4): 0.55
CCN(CC)c1ccc2c(-c3ccccc3C(=O)O)c3ccc(=[N+](CC)CC)cc-3oc2c1.[Cl-] [Rhodamine B],–,–,–,fluorescence quantum yield Φ of reference ([4]; in ethanol): 0.65
"O=c1c2ccccc2[nH]c2ccccc12 [ACD, acridone]",406 nm and 428 nm and 455 nm,0.64,361 nm and 379 nm and 398 nm,–
CN(C)c1ccc2nc3ccc(=[N+](C)C)cc-3sc2c1 [methylene blue],–,–,–,"singlet oxygen quantum yield (ΦΔ,MB) of reference [5]: 0.57"
O=C(CN1C(=S)c2cccc3c(N4CCCC4)ccc(c23)C1=S)NCCOCCOCCCCCCCl [Dye 5NP-Halo],–,–,–,fluorescence upon photoactivation of treated cells [6]: enhanced fluorescence

# Further lines, with some results ahead:
λem [1],ø (fluorescence quantum yield) [2],λabs [1],SMILES,further results
294 nm,<0.001,–,S=C1NC(=S)c2ccccc21 [Dye 2SPI],Turn-on (x-fold) [3]: 30^d x-fold
626 nm,0.46,–,CCN(CC)c1ccc2nc3c4ccccc4c(=O)cc-3oc2c1 [Nile Red],–
505 nm,0.09,267 nm and 325 nm and 397 nm,"CN(C)c1ccc2c(c1)C(=O)NC2=O [DMAP, 4-dimethylaminophthalimide]",bathochromic shift of absorption maximum ([1]; double thiocarbonyl substitution versus carbonyl compound): 166 nm
347 nm,0.001,–,"O=C1NC(=O)c2ccccc21 [OPI, phthalimide]",–
409 nm and 427 nm and 463 nm,<0.001,430 nm and 456 nm,S=c1c2ccccc2[nH]c2ccccc12 [SACD],Turn-on (x-fold) [3]: 180^d x-fold
445 nm,0.71,–,"O=c1ccc2ccccc2o1 [Cou, coumarin]",–
447 nm,<0.001,326 nm and 390 nm and 563 nm,CN(C)c1ccc2c(c1)C(=S)NC2=S [SDMAP],Turn-on (x-fold) [3]: 1600^d x-fold
